# Values quoted from earlier work in patent publication US12552784B2, “1H-pyrrolo[2,3-b]pyridine derivatives as BCL-2 inhibitors for the treatment of neoplastic and autoimmune diseases” (priority 2019, dated 2026).
# Tests used:
# CLL = conditions: average; read-out: EC50 apoptosis in CLL
# RS4;11 xenografts = conditions: single dose of 100 mg/kg
# DoHH2 = conditions: single agent or in combination with Bendamustine and other agents
# Granta-519 = conditions: single agent or in combination with Bendamustine and other agents
# [1] = tested on: CLL who have 17p deletion; conditions: Human Phase I and II
# Bcl-w = target: T1, Bcl-w (Homo sapiens, UniProt Q92843)
# T1 sequence (Q92843 1-193): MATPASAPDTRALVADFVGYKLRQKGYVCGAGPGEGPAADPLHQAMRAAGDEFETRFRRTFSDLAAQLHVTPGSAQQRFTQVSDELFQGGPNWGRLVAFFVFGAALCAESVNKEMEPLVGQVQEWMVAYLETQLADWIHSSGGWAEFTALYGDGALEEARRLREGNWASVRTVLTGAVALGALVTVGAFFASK
# SCLC H146 cell line = conditions: read-out: IC50 against SCLC H146 cell line
# H345 xenograft model = conditions: 100 mg/kg/day
# small-cell lung cancer = conditions: oral administration alone
# [2] = tested on: acute lymphoblastic leukemia; conditions: oral administration alone
# [3] = in vivo
# established tumors = conditions: animal models
smiles,measurement,setting,value
CC1(C)CCC(CN2CCN(c3ccc(C(=O)NS(=O)(=O)c4ccc(NCC5CCOCC5)c([N+](=O)[O-])c4)c(Oc4cnc5[nH]ccc5c4)c3)CC2)=C(c2ccc(Cl)cc2)C1 [ABT-199],EC50,RS4;11 cells,8 nM
same,apoptosis in RS4;11 cells,"RS4;11 cells; with cytochrome c release, caspase activation, accumulation of sub-G0/G1 DNA",rapid apoptosis
same,EC50,CLL,3 nM
same,maximal tumor growth inhibition,RS4;11 xenografts,95%
same,tumor growth delay,RS4;11 xenografts,152%
same,xenograft growth,DoHH2,inhibits xenograft growth
same,xenograft growth,Granta-519,inhibits xenograft growth
same,clinical efficacy,[1],highly efficacious
CC1(C)CCC(c2ccc(Cl)cc2)=C(CN2CCN(c3ccc(C(=O)NS(=O)(=O)c4ccc(N[C@H](CCN5CCOCC5)CSc5ccccc5)c(S(=O)(=O)C(F)(F)F)c4)cc3)CC2)C1 [ABT-263],Ki,Bcl-w,≤ 1 nM
same,IC50,SCLC H146 cell line,110 nM
same,TGI,H345 xenograft model,80%
same,treated tumors indicating at least a 50% reduction in tumor volume,H345 xenograft model,20%
same,tumor regression,small-cell lung cancer,complete tumor regressions
same,tumor regression,[2],complete tumor regressions
same,number of circulating platelets,circulating platelets; clinical trial,"rapid, concentration-dependent decrease"
same,dose-limiting toxicity,circulating platelets; single-agent treatment in patients,mechanism-based thrombocytopenia
same,oral bioavailability,[3],orally bioavailable
CN(C)CC[C@H](CSc1ccccc1)Nc1ccc(S(=O)(=O)NC(=O)c2ccc(N3CCN(Cc4ccccc4-c4ccc(Cl)cc4)CC3)cc2)cc1[N+](=O)[O-] [ABT-737],oral bioavailability,[3],not orally bioavailable
same,aqueous solubility,,low aqueous solubility
same,cures,established tumors,produces cures in a high percentage of the mice
same,survival,established tumors,improves survival
same,tumor regression,established tumors,causes regression of established tumors
